Laboratory results published in US7112579B2, “26,27-Homologated-20-EPI-2-alkyl-19-nor-vitamin D compounds” (Wisconsin Alumni Research Foundation, priority 1997, dated 2006).
Where “and” joins values, the source holds several entries; their conditions need not be identical. Equal entries are not always repeated. Where two headings read alike, the source gives them in different places. Marks after values point to notes of the source that are not given here.

What was measured:
[1] = test system: human promyelocyte HL-60 cells; assay: Differentiation of HL-60 promyelocytes into monocytes (NBT reduction); type: cell-based; details: for induction of differentiation of HL-60 cells to monocytes, in words: FIGS. 2, 4, 6, comparison in words; for HL-60 Differentiation ED50: concentration inducing 50% maturation (NBT); for HL-60 Differentiation Activity ratio: analog average ED50 / ED50 for 1α,25-(OH)2D3
From the text: In the next assay, the cellular activity of the synthesized compounds was established by studying their ability to induce differentiation of human promyelocyte HL-60 cells into monocytes.

[2] = test system: intestinal calcium transport; assay: Intestinal calcium transport (everted sac), chronic doses 7 days i.p., vitamin D-deficient rats; type: in vivo, rat; details: for intestinal calcium transport activity, in words: chronic 7 days, 130 and/or 260 pmol/day
Method: (§1) Male weanling rats were obtained from Sprague Dawley Co. (Indianapolis, Ind.) and fed a 0.47% calcium, 0.3% phosphorus vitamin D-deficient diet for 1 week and then given the same diet containing 0.02% calcium, 0.3% phosphorus for 2 weeks. During the last week they were given the indicated dose of compound by intraperitoneal injection in 0.1 ml 95% propylene glycol and 5% ethanol each day for 7 days. The control animals received only the 0.1 ml of 95% propylene glycol, 5% ethanol. Twenty-four hours after the last dose, the rats were sacrificed and intestinal calcium transport was determined by everted sac technique as previously described and serum calcium determined by atomic absorption spectrometry on a model 3110 Perkin Elmer instrument (Norwalk, Conn.). There were 5 rats per group and the values represent mean±SEM.
as §1, with “With respect to the data in Tables 3 and 4, male” for “Male”, “atormic” for “atomic”

[3] = test system: serum calcium (bone calcium mobilization); assay: Serum calcium (bone calcium mobilization), chronic doses 7 days i.p., vitamin D-deficient rats; type: in vivo, rat; details: for bone calcium mobilization (serum calcium) activity, in words: chronic 7 days, 130 and/or 260 pmol/day
Method: as §1
as §1, with “With respect to the data in Tables 3 and 4, male” for “Male”, “atormic” for “atomic”

[4] = test system: intestinal calcium transport; assay: Intestinal calcium transport after a single intrajugular dose, vitamin D-deficient rats; type: in vivo, rat; details: Table 2, single intrajugular dose 650 pmol, 24 h, mean±SEM
Method: (§2) Male Holtzman strain weanling rats were obtained from the Sprague Dawley Co. (Indianapolis, Ind.) and fed the 0.47% calcium, 0.3% phosphorus diet described by Suda et al. (J. Nutr. 100, 1049–1052, 1970) for 1 week and then fed the same diet containing 0.02% calcium and 0.3% phosphorus for 2 additional weeks. At this point, they received a single intrajugular injection of the indicated dose dissolved in 0.1 ml of 95% propylene glycol/5% ethanol. Twenty-four hours later they were sacrificed and intestinal calcium transport and serum calcium were determined as described in Table 1. The dose of the compounds was 650 pmol and there were 5 animals per group. The data are expressed as mean±SEM.

[5] = test system: serum calcium (bone calcium mobilization); assay: Serum calcium (bone calcium mobilization) after a single intrajugular dose, vitamin D-deficient rats; type: in vivo, rat; details: Table 2, single intrajugular dose 650 pmol, 24 h, mean±SEM
Method: as §2

[6] = test system: intestinal calcium transport; assay: Support of intestinal calcium transport in vitamin D-deficient rats on a low-calcium diet (3 weeks), 7 daily i.p. doses; type: in vivo, rat
[7] = test system: bone calcium mobilization (serum Ca); assay: Bone calcium mobilization (serum Ca) in vitamin D-deficient rats on a low-calcium diet (3 weeks), 7 daily i.p. doses; type: in vivo, rat
[8] = molecular target: T1, porcine intestinal vitamin D receptor (Sus scrofa, UniProt A3RGC1); assay: Competitive binding to the porcine intestinal vitamin D receptor ([3H]-1,25-(OH)2-D3 displacement); parameters: species or system pig; details: for VDR Binding ratio: analog average ED50 / ED50 for 1α,25-(OH)2D3; for EC50: concentration for 50% displacement of radiolabeled 1α,25-(OH)2D3, read-out: VDR Binding ED50
T1 construct: from tissue; host or cells: porcine intestine
T1 sequence (A3RGC1 1-427): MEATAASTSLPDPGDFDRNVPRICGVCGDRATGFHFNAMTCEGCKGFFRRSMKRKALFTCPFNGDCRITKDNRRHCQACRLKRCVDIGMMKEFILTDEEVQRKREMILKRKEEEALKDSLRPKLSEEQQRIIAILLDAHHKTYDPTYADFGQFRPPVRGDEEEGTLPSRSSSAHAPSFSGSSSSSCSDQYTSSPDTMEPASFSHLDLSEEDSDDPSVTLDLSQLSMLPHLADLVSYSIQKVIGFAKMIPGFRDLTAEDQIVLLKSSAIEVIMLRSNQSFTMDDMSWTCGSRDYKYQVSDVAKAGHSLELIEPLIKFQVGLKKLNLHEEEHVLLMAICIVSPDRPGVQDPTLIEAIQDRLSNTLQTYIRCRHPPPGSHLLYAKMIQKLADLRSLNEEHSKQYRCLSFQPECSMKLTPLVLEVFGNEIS

[9] = Table 1, 130 pmol/day/7 days i.p., mean±SEM, 5 rats
[10] = Table 1, 260 pmol/day/7 days i.p., mean±SEM, 5 rats
[11] = listed as α and β isomers of 2-methyl-19-nor-1,25-(OH)2D3
[12] = listed as 2-Methyl (α and β mixture)-19-Nor-1,25-(OH)2D3
[13] = listed as 2-Methyl (α and β mixture)-19-Nor-20S-1,25-(OH)2D3
[14] = Table 4, 260 pmol/day/7 days i.p., mean±SEM
[15] = Table 5, 260 pmol/day/7 days i.p.
[16] = Table 7 panel 1, 260 pmol daily x 7 i.p.
[17] = Table 7 panel 2, 260 pmol daily x 7 i.p.
[18] = Table 9 panel 1, 260 pmol daily x 7 i.p.
[19] = Table 9 panel 2, 260 pmol daily x 7 i.p.
[20] = Table 7 panel 2, 65 pmol daily x 7 i.p.
[21] = Table 9 panel 1, 32 pmol daily x 7 i.p.
[22] = Table 9 panel 1, 65 pmol daily x 7 i.p.
[23] = Table 9 panel 2, 65 pmol daily x 7 i.p.

For `CC(CCCC(C)(C)O)C1CCC2C(=CC=C3CC(O)C(C)C(O)C3)CCCC21C` (mixture of isomers) [2-Methyl (α and β) 19-Nor-1,25-(OH)2D3, mixture of 2α and 2β-methyl-19-nor-1α,25-dihydroxyvitamin D3], the “induction of differentiation of HL-60 cells to monocytes, in words” value [1] was “activity similar to 1,25-(OH)2D3”, the “Intestinal Calcium Transport (S/M)” value [2, 9] was 5.0 ± 0.3 S/M and the “Intestinal Calcium Transport (S/M)” value [2, 10] was 5.3 ± 0.6 S/M. For the same compound, the “intestinal calcium transport activity, in words” value [2, 11] was “no intestinal calcium transport activity”, the “Serum Calcium” value [3, 9] was 6.1 ± 0.1 mg/100 ml and the “Serum Calcium” value [3, 10] was 6.7 ± 0.4 mg/100 ml. The “bone calcium mobilization (serum calcium) activity, in words” value [3, 11] was “strong bone calcium mobilization at both dose levels”, the “Intestinal Calcium Transport (S/M)” value [4, 12] was 3.6 ± 0.4 S/M and the “Serum Calcium” value [5, 12] was 5.4 ± 0.1 mg/100 ml.

For `CC(CCCC(C)(C)O)C1CCC2C(=CC=C3CC(O)C(C)C(O)C3)CCCC21C` (mixture of isomers) [2-Methyl (α and β) 19-Nor-20S-1,25-(OH)2D3] [mixture of 2α and 2β-methyl-19-nor-20S-1α,25-dihydroxyvitamin D3], the “induction of differentiation of HL-60 cells to monocytes, in words” value ([1]; listed as α and β derivatives of 2-methyl-19-nor-20S-1,25-(OH)2D3) was “extremely potent”, the “Intestinal Calcium Transport (S/M)” value [2, 9] was 5.0 ± 0.9 S/M and the “Intestinal Calcium Transport (S/M)” value [2, 10] was 6.9 ± 0.5 S/M. For the same compound, the “intestinal calcium transport activity, in words” value [2] was “no significant change in intestinal calcium transport at 130 pmol dose level”, the “Serum Calcium” value [3, 9] was 9.6 ± 0.1 mg/100 ml and the “Serum Calcium” value ([3]; Table 1, 130 pmol/day/7 days i.p., mean±SEM, 5 rats, listed as 2-methyl-(α and β)-19-nor-20S-1,25-(OH)2D3) was 9.6 mg/100 ml. For the same compound, the “Serum Calcium” value [3, 10] was 12.2 ± 0.3 mg/100 ml, the “Serum Calcium” value ([3]; Table 1, 260 pmol/day/7 days i.p., mean±SEM, 5 rats, listed as 2-methyl-(α and β)-19-nor-20S-1,25-(OH)2D3) was 12.2 mg/100 ml and the “bone calcium mobilization (serum calcium) activity, in words” value [3] was “much higher than that of the native hormone”. The “Intestinal Calcium Transport (S/M)” value [4, 13] was 6.7 ± 0.6 S/M and the “Serum Calcium” value [5, 13] was 8.1 ± 0.3 mg/100 ml.

With `C=C1/C(=C\C=C2/CCC[C@]3(C)[C@@H]([C@H](C)CCCC(C)(C)O)CC[C@@H]23)C[C@@H](O)C[C@@H]1O` [1α,25-(OH)2D3, 1α,25-dihydroxyvitamin D3, reference compound] the “HL-60 Differentiation ED50” value ([1]; Table 6) was 4 nM, the “HL-60 Differentiation ED50” value ([1]; Table 8) was 4 nM and the “Intestinal Calcium Transport (S/M)” value [2, 10] was 6.2 ± 0.4 S/M. For the same compound, the “Intestinal Calcium Transport (S/M)” value ([2]; Table 3, 260 pmol/day/7 days i.p., mean±SEM) was 4.6 ± 0.2 S/M, the “Intestinal Calcium Transport (S/M)” value [2, 14] was 5.6 ± 1.3 S/M and the “Intestinal Calcium Transport (S/M)” value [2, 15] was 6.6 ± 0.5 S/M. The “Serum Calcium” value ([3]; Table 1, 260 pmol/day/7 days i.p., mean±SEM, 5 rats, listed as 1,25-(OH)2D3) was 7.2 mg/100 ml and 7.2 ± 0.5 mg/100 ml, the “Serum Calcium” value ([3]; Table 3, 260 pmol/day/7 days i.p., mean±SEM, listed as 1,25-(OH)2D3) was 6.6±0.4 mg/100 ml and the “Serum Calcium” value [3, 14] was 6.1 ± 0.5 mg/100 ml. For the same compound, the “Serum Calcium” value [3, 15] was 5.2 ± 0.1 mg/100 ml, the “Intestinal Calcium Transport (S/M)” value [4] was 5.8 ± 0.3 S/M and the “Serum Calcium” value [5] was 5.7 ± 0.2 mg/100 ml. For the same compound, the “Ca Transport S/M (mean ± SEM)” value [6, 16] was 7.2 ± 0.6^c S/M, the “Ca Transport S/M (mean ± SEM)” value [6, 17] was 5.0 ± 0.4^c S/M and the “Ca Transport S/M (mean ± SEM)” value [6, 18] was 7.2 ± 0.6^c S/M. The “Ca Transport S/M (mean ± SEM)” value [6, 19] was 5.0 ± 0.4^c S/M, the “Serum Ca (mean ± SEM)” value [7, 16] was 5.6 ± 0.2^c and the “Serum Ca (mean ± SEM)” value [7, 17] was 6.3 ± 0.2^c. The “Serum Ca (mean ± SEM)” value [7, 18] was 5.6 ± 0.2^c and the “Serum Ca (mean ± SEM)” value [7, 19] was 6.3 ± 0.2^c.

With `CCC(O)(CC)CCCC(C)C1CCC2C(=CC=C3CC(O)C(C)C(O)C3)CCCC21C` [Compound 37, 20(S)-1α,25-Dihydroxy-2β-methyl-26,27-dihomo-19-norvitamin D3] the “VDR Binding ratio” value ([8]; Table 6) was 5.5, the EC50 ([8]; Table 6) was 4.8 nM and the “HL-60 Differentiation Activity ratio” value ([1]; Table 6) was 0.03. For the same compound, the “HL-60 Differentiation ED50” value ([1]; Table 6) was 0.11 nM, the “Ca Transport S/M (mean ± SEM)” value [6, 20] was 4.7 ± 0.6^d^1 S/M and the “Ca Transport S/M (mean ± SEM)” value [6, 17] was 5.2 ± 0.6^d^2 S/M. For the same compound, the “Serum Ca (mean ± SEM)” value [7, 20] was 5.0 ± 0.0^d^1 and the “Serum Ca (mean ± SEM)” value [7, 17] was 9.9 ± 0.3^d^2.

In the case of `CC1[C@H](O)CC(=C/C=C2\CCC[C@@]3(C)C2CCC3[C@@H](C)CCCC2(O)CCCC2)C[C@H]1O` (stereo partly drawn) [Compound 48, 20(S)-1α,25-Dihydroxy-26,27-dimethylene-2α-methyl-19-norvitamin D3], the “VDR Binding ratio” value ([8]; Table 8) is reported as 4.0, the EC50 ([8]; Table 8) is reported as 3.5 nM and the “HL-60 Differentiation Activity ratio” value ([1]; Table 8) is reported as 0.01. The “HL-60 Differentiation ED50” value ([1]; Table 8) was 0.044 nM, the “Ca Transport S/M (mean ± SEM)” value [6, 21] was 7.9 ± 1.0^d^1 S/M and the “Ca Transport S/M (mean ± SEM)” value [6, 22] was 9.0 ± 1.0^d^2 S/M. For the same compound, the “Serum Ca (mean ± SEM)” value [7, 21] was 6.9 ± 0.5^d^1 and the “Serum Ca (mean ± SEM)” value [7, 22] was 9.0 ± 0.3^d^2.

With `CC1[C@H](O)CC(=C/C=C2\CCC[C@@]3(C)C2CCC3[C@@H](C)CCCC2(O)CCCC2)C[C@H]1O` (stereo partly drawn) [Compound 49, 20(S)-1α,25-Dihydroxy-26,27-dimethylene-2β-methyl-19-norvitamin D3] the “VDR Binding ratio” value ([8]; Table 8) was 2.6, the EC50 ([8]; Table 8) was 2.3 nM and the “HL-60 Differentiation Activity ratio” value ([1]; Table 8) was 0.08. The “HL-60 Differentiation ED50” value ([1]; Table 8) was 0.32 nM, the “Ca Transport S/M (mean ± SEM)” value [6, 23] was 4.9 ± 0.6^d^1 S/M and the “Ca Transport S/M (mean ± SEM)” value [6, 19] was 5.4 ± 0.7^d^2 S/M. For the same compound, the “Serum Ca (mean ± SEM)” value [7, 23] was 5.8 ± 0.2^d^1 and the “Serum Ca (mean ± SEM)” value [7, 19] was 9.5 ± 0.1^d^2.
